Source: patent publication US12059400B2, “Medical compound” (VERA SALUS RICERCA S.R.L., priority 2017, dated 2024)
“Also recorded” adds a separate entry of the source.

Experiments:
[1] = tested on: human colon carcinoma cells (HCT116); assay: Cell proliferation, crystal violet method; format: cell-based; conditions: for HCT116 cell growth vs vehicle control: 100 μM, FIG. 3a, 3b, 13a, 13b; for IC50: crystal violet, spectrophotometer, read-out: IC50 anti-proliferative effect, CRC (HCT116)
Protocol: (§1) The compound according to the invention, and in particular the synthetic quercetin derivatives described and illustrated herein were investigated in vitro by using human tumour cells and assessing their impact on the tumour proliferative capacity, with regard to the tumours described above. In particular, the following human tumour cell lines were assessed experimentally: 1) HCT116, colon adenocarcinoma cells; 2) H1299, lung adenocarcinoma cells; 3) A375, melanoma cells, and 4) A431, squamous skin cell carcinoma; 5) 786-0, renal carcinoma cells; 6) PC3, prostate carcinoma cells; 7) BT549, mammary carcinoma cells; 8) CAL27, tongue carcinoma cells (belonging to the head-and-neck carcinomas); 9) HepG2, hepatocellular carcinoma cells; 10) PANC-1, pancreas carcinoma cells; 11) T24, bladder carcinoma cells; 12) OVCAR-3, ovarian carcinoma cells. In addition, a normal human cell line, WS1 (skin fibroblasts) was also treated with the novel synthetic compounds.
(§2) Cell proliferation was quantified by the crystal violet method with a spectrophotometer. In short, after acquiring serial images (0, 24 and 48 hrs) with the EVOS XL Cell Imaging System microscope (Thermo Fisher Scientific), the cells imaged at 48 hrs were fixed with paraformaldehyde (4%) and stained with Crystal Violet (1%). Then, the specific absorbance (λ=590 nm) at 48 hrs was measured with a spectrophotometer (Infinite®200 PRO, Tecan). Data analysis was carried out by using ad-hoc Excel files for graphical representation and statistical processing (t-test). Moreover, the results obtained with Crystal Violet were confirmed by using another cell proliferation assessment method based on the real time cellular analyzer XCELLigence RTCA DP (ACEA Biosciences, Inc.). This tool allows cell growth to be monitored from electrical impedance-derived quantitative values (the so-called Cell Index) measured by tiny electrodes located at the base of the culture wells. Proliferation is monitored for several days (5-7) by setting a Cell Index per minute measure on the instrument. The data are analysed by processing various parameters calculated by the dedicated software, such as the cell duplication time, the slope and the Max Cell Index.
(§3) Cell proliferation was quantitated spectrophotometrically by the crystal violet method.

[2] = tested on: human hepatocellular carcinoma cells (HepG2); assay: Cell proliferation, crystal violet method; format: cell-based; conditions: for HepG2 tumour growth vs vehicle control: 80 μM, FIG. 8a, 8b; for IC50: crystal violet, spectrophotometer, read-out: IC50 anti-proliferative effect, HCC - HepG2
Protocol: as §1, §2, §3

[3] = tested on: human mammary carcinoma cells (BT549); assay: Cell proliferation, crystal violet method; format: cell-based; conditions: for BT549 cell growth vs vehicle control: 80 μM, FIG. 6a, 6b; for IC50: crystal violet, spectrophotometer, read-out: IC50 anti-proliferative effect, BRC - (BT549)
Protocol: as §1, §2, §3

[4] = tested on: human melanoma cells (A375); assay: Cell proliferation, crystal violet method; format: cell-based; conditions: for growth of melanoma cells (A375) vs vehicle control: 60 μM, FIG. 1a, 1b; for IC50: crystal violet, spectrophotometer, read-out: IC50 anti-proliferative effect, Melanoma (A375)
Protocol: as §1, §2, §3

[5] = tested on: human tongue carcinoma cells (Cal27); assay: Cell proliferation, crystal violet method; format: cell-based; conditions: for Cal27 tumour growth vs vehicle control: 80 μM, FIG. 7a, 7b; for IC50: crystal violet, spectrophotometer, read-out: IC50 anti-proliferative effect, HNC - (Cal27)
Protocol: as §1, §2, §3

[6] = tested on: H1299, lung adenocarcinoma cells; assay: Cell proliferation, crystal violet method; format: cell-based, human; conditions: spectrophotometer, read-out: IC50 anti-proliferative effect, LC (H1299)
Protocol: as §1, §2, §3

[7] = tested on: melanoma, A375; assay: Apoptosis, acridine orange/ethidium bromide method; format: cell-based, human; conditions: 2 hrs; Compound 2 40 μM, 5 40 μM, 4 40 μM, 3 60 μM, 1 80 μM; FIG. 18
Source text: Tumour cell apoptosis was quantified by the acridine orange/ethidium bromide (AO/EB) method and by using a fluorescence microscope and image-J. In short, after treatment with the test compounds (2 hrs), the tumour cells were placed in contact with an AO/EB solution (in sterile H2O) and photographed with a fluorescence microscope (Leica) by using the ≥20× objective (so as to distinguish the morphology of cell nuclei). In this way, the living cells are labelled with AO and emit fluorescence in the green channel, while the necrotic cells, which have undergone the rupture of the plasma membrane, are permeable to EB and emit fluorescence in the red channel. In contrast, apoptotic cells are permeable to both AO and EB, and as a consequence of the colocalization of the two fluorescences appear yellow-orange when the two individual microscope-acquired fluorescences are superimposed by using the editing program Image J. The objective quantification of the colocalization areas (apoptotic cells) and the non-colocalization areas (living or necrotic cells) was carried out on a number of cells ≥300/condition through the use of Apoptosis Correlator (ImageJ plug-in) and shown as the percentage of living (green), necrotic (red) or apoptotic (yellow-orange) tumour cells. Data analysis was carried out by using GraphPad Prism 6 for graphical representation and statistical processing (2-way ANOVA test).

[8] = tested on: normal cells (human skin fibroblasts, WS1); assay: Apoptosis, acridine orange/ethidium bromide method; format: cell-based; conditions: 2 hrs; Compound 2 40 μM, 5 40 μM, 4 40 μM, 3 60 μM, 1 80 μM; FIG. 18
[9] = tested on: human colon carcinoma cells (HCT116); assay: Cell cycle progression, propidium iodide method, cytofluorimeter; format: cell-based; conditions: for halt of HCT116 tumour cells in S of the cell cycle: 24 hrs, at the respective anti-proliferative IC50s, FIG. 20
Protocol: (§4) Progression through the tumour cell cycle was assessed by the propidium iodide method and quantification of the cell DNA content with a cytofluorimeter. Briefly, after treatment (in duplicate) with the test compounds (24 hrs), the tumour cells were washed (with PBS), detached with trypsin-EDTA and pelleted by centrifugation (125 g for 6 min). The cells were then fixed in ethanol (70%) and stored in the freezer (−20° C.) for 1-3 days. After further washing (PBS) and treatment with RNAse (50 ug/ml), the cells were contacted (on ice in the dark; 30 min) with propidium iodide (50 μg/ml). FL2 and FL3 cytofluorimeter readings analysed approximately 50,000 cells (1 μl/second) per sample. Statistical analysis and graphical representation were performed by using t-tests and preset Excel property files.

[10] = tested on: human melanoma cells (A375); assay: as above; format: cell-based; conditions: for halt of A375 tumour cells in S and/or G2 of the cell cycle: 24 hrs, at the respective anti-proliferative IC50s, FIG. 19
Protocol: as §4

[11] = tested on: human colon carcinoma cells (HCT116); assay: Intracellular ROS levels, DCFH2-DA probe; format: cell-based; conditions: for intracellular ROS levels in HCT116 cells: 2 hrs of treatment, at the respective anti-proliferative IC50s, DCF fluorescence in A.U., FIG. 22 left
Protocol: Intracellular ROS levels were measured in tumour cells by using the probe 2,7-dichlorodihydrofluorescein diacetate (DCFH2-DA) and a fluorescence spectrophotometer. DCFH2-DA diffuses readily through the cell membrane into the cytosolic space of the cell where it is hydrolyzed by intracellular esterases into the non-permeable DCFH2 product. DCFH2 oxidation by intracellular ROS (mainly H2O2, HO·, ROO·, NO· and ONOO) results in the production of intracellular fluorescent DCF, whose concentration is directly proportional to the levels of ROS in the cell. […] All the experiments were repeated at least 3 times. Data analysis was carried out with GraphPad Prism 6 for graphical representation and statistical processing (1-way ANOVA test).

Substance	HCT116 cell growth vs vehicle control [1]	IC50 [1]	HepG2 tumour growth vs vehicle control [2]	IC50 [2]	BT549 cell growth vs vehicle control [3]	IC50 [3]	growth of melanoma cells (A375) vs vehicle control [4]	IC50 [4]	Cal27 tumour growth vs vehicle control [5]	IC50 [5]	IC50 [6]	induction of apoptosis in A375 [7]	induction of apoptosis in normal cells WS1 [8]	halt of HCT116 tumour cells in S of the cell cycle [9]	halt of A375 tumour cells in S and/or G2 of the cell cycle [10]	intracellular ROS levels in HCT116 cells [11]	effect on the HCT116 cell cycle in presence of ROS scavenger NAC ([9]; Compound at its anti-proliferative IC50 + N-Acetyl Cysteine 10 mM, FIG. 21 left)	effect on the A375 cell cycle in presence of ROS scavenger NAC ([10]; Compound at its anti-proliferative IC50 + N-Acetyl Cysteine 10 mM, FIG. 21 right)	intracellular ROS levels in HCT116 cells after pretreatment with NAC ([11]; pretreatment with N-Acetyl-L-Cysteine 10 mM, FIG. 22 right)
2-(3,4-dihydroxyphenyl)-5,7-dihydroxy-4-oxo-4H-chromen-3-yl acetate [Compound 4]	significantly inhibit	22.9 µM	significantly inhibit; also recorded: superior to that of quercetin	54.4 µM	significantly inhibit	48.6 µM	significantly inhibit	20.1 µM	significantly inhibit	22.9 µM	15.9 µM	induced apoptosis	not in normal cells	significantly halt	significantly halt				
2-(3,4-Dihydroxyphenyl)-3-hexadecyloxy-5,7-dihydroxy-4H-chromen-4-one [Compound 3]	significantly inhibit	59.8 µM	significantly inhibit; also recorded: superior to that of quercetin	50.2 µM	significantly inhibit	119 µM		48.1 µM	significantly inhibit	36.7 µM	34.9 µM	induced apoptosis	not in normal cells	significantly halt	exception	significantly raise			
2-(3,4-dihydroxyphenyl)-5,7-dihydroxy-4-oxo-4H-chromen-3-yl palmitate [Compound 5]	significantly inhibit	28.8 µM	significantly inhibit; also recorded: superior to that of quercetin	106 µM	significantly inhibit	46.5 µM	significantly inhibit	16.4 µM	significantly inhibit; also recorded: superior to that of quercetin	19.7 µM	50.5 µM	induced apoptosis	not in normal cells		significantly halt				
2-(3,4-Dihydroxyphenyl)-3-ethoxy-5,7-dihydroxy-4H-chromen-4-one [Compound 1]		166 µM	significantly inhibit	144 µM	significantly inhibit	191 µM		67.1 µM	significantly inhibit	15.6 µM	100 µM	induced apoptosis	not in normal cells	significantly halt	significantly halt	significantly raise	partly mediated by ROS	partly mediated by ROS	blocked
2-(3,4-Dihydroxyphenyl)-3-hexyloxy-5,7-dihydroxy-4H-chromen-4-one [Compound 2]	significantly inhibit	42.8 µM	significantly inhibit	265 µM	significantly inhibit	156 µM	significantly inhibit	19.3 µM	significantly inhibit	63.2 µM	50.7 µM	induced apoptosis	not in normal cells		significantly halt	significantly raise			
